Where two headings read alike, the source gives them in different places.
Legend:
[1] = system: mice; assay: Effects observed in mice after i.p. injection (CNS stimulation, diarrhea); assay type: in vivo
Procedure: In addition, two further tertiary amide compounds, BJ and BT, produced diarrhea in the mice 30 minutes after i.p. injection of 100 mg/kg of each.

[2] = system: rats; assay: MES test, rats p.o.; assay type: in vivo; conditions: at 30 mg/kg
[3] = system: mice; assay: Maximal Electroshock Seizure (MES) test, mice i.p.; assay type: in vivo; conditions: for MES, fraction of animals: mice i.p.; for activity in the MES test: at 100 mg/kg
[4] = system: mice; assay: 6 Hz (minimal clonic seizure) model, mice i.p.; assay type: in vivo; conditions: mice i.p.; 100 mg/kg @ 0.5 hr
[5] = system: SMN2 promoter; assay: SMN2 promoter β-lactamase reporter assay in NSC34 motor neuron-like cells; assay type: cell-based; conditions: treatment for 19 hours at a concentration of 1 μM
Procedure: FIG. 30 illustrates a screen for SMN2 expression of a number of compounds described herein.
SMN2 promoter activity was measured using NSC34 motor neuron-like cells stably transfected with a β-lactamase (BLA) reporter gene under the control of a 3.4-kilobase fragment of the SMN2 promoter. D156844 was used as a positive control for this assay.

[6] = system: mice; assay: Subcutaneous Metrazol Seizure threshold (s.c. MET) test, mice i.p.; assay type: in vivo
[7] = system: rats; assay: Sciatic nerve ligation model in rats; assay type: in vivo; conditions: 100 mg/kg
Procedure: [The response (threshold for foot withdrawal) was measured in grams.]

[8] = system: rats; assay: s.c. MET test, rats p.o.; assay type: in vivo; conditions: at 30 mg/kg
[9] = system: rats; assay: Hippocampal Kindled Rats model; assay type: in vivo; conditions: rats, at 100 mg/kg
[10] = system: mice; assay: Minimal motor impairment (MID50), mice i.p.
Procedure: The animal testing was performed according to methods known in the relevant art.

[11] = system: rats; assay: Pilocarpine-induced Status Epilepticus in Rats (prevention; intervention @ 30 min); conditions: Rattus norvegicus
Procedure: The animal testing was performed using the protocols developed in the Anticonvulsant Screening Program (ASP) at the National Institute of Neurological Disorders and Stroke (NINDS), National Institutes of Health (NIH).

**Q.** With `CC(CC(=O)N1CCN(C)CC1)c1ccc(OC(F)(F)F)cc1.Cl` (stereo not shown) [BJ, 1-(4-Methyl-piperazin-1-yl)-3-(4-trifluoromethoxy-phenyl)-butan-1-one hydrochloride] as the molecule, how does the “effect produced in the mice” value ([1]; 30 minutes after i.p. injection of 100 mg/kg) read?
**A.** Its value is “diarrhea”.

**Q.** And the “activity in the MES test” value [2]?
**A.** Its value is “activity”.

**Q.** What about the “MES, fraction of animals” value ([3]; 100 mg/kg @ 0.25 hr) of the same molecule?
**A.** Its value is 2/3 @.

**Q.** What about the “activity in the MES test” value ([3]; mice) of the same molecule?
**A.** Its value is “activity”.

**Q.** Which “6 Hz (32 mA), fraction of animals” value [4] does the source give for `CCN(C)C(=O)CC(C)c1ccc(OC(F)(F)F)cc1` (stereo not shown) [BE, N-Ethyl-N-methyl-3-(4-trifluoromethoxy-phenyl)-butyramide] here?
**A.** Its value is 2/4 @ 0.5 hr,.

**Q.** And the CNS-stimulating effect observed ([1]; mice, 300 mg/kg i.p., 30 minutes after injection)?
**A.** Its CNS-stimulating effect observed is “tremors”.

**Q.** What about the “activity in the MES test” value [2] of the same molecule?
**A.** The value was “activity”.

**Q.** What about the “MES, fraction of animals” value ([3]; 100 mg/kg @ 0.5 hr) of the same molecule?
**A.** The value was 1/3 @.

**Q.** What about the “activity in the MES test” value ([3]; mice) of the same molecule?
**A.** Its value is “activity”.

**Q.** For `CC(CC(=O)N1CCCCC1)c1ccc(OC(F)(F)F)cc1` (stereo not shown) [BH, 1-Piperidin-1-yl-3-(4-trifluoromethoxy-phenyl)-butan-1-one], which CNS-stimulating effect observed ([1]; mice, on injection) is on record?
**A.** Its CNS-stimulating effect observed is “vocalization and hyperactivity”.

**Q.** And the “duration of vocalization and hyperactivity” value ([1]; mice, on injection)?
**A.** Its value is 5 to 6 min.

**Q.** What about the SMN2 promoter activity [5] of the same molecule?
**A.** Its SMN2 promoter activity is “increased SMN2 promoter activity”.

**Q.** And the “activity in the s.c. MET test” value ([6]; mice, at 300 mg/kg)?
**A.** Its value is “activity”.

**Q.** What does the source list for `CC(CC(N)=O)c1cccc(C(F)(F)F)c1` (stereo not shown) [Compound G, 3-[3-(trifluoromethyl)-phenyl]butyramide]?
**A.** allodynic threshold ([7]; 1 hour post-administration): 275 % of the control; allodynic threshold ([7]; 2 hours post-administration): 219 % of the control; allodynic threshold ([7]; 4 hours post-administration): 175 % of the control; activity in the s.c. MET test [8]: activity; seizure score, Hippocampal Kindled Rats model [9]: significantly lowering the seizure score; MID50, fraction of animals ([10]; mice i.p., 100 mg/kg @ 0.5 hr): 7/8 @0.5 hr; MID50 (median minimal motor impairment dose) ([10]; mice, i.p.): <100 mg/kg; responders at 200 mg/kg ([11]; 0.5 h, read-out: Intervention @ 30 min, Protection): 88%; responders at 200 mg/kg ([11]; read-out: Prevention, Protection): 100%; ED50 ([6]; Mus musculus, mice, i.p.): ≤ 100 mg/kg; s.c. MET, fraction of animals ([6]; mice i.p., 100 mg/kg @ 0.5 hr): 1/1 @0.5; activity in the MES test [2]: activity; ED50 ([3]; Mus musculus, ip, mice): < 100 mg/kg; MES, fraction of animals ([3]; 100 mg/kg @ 0.5 hr): 3/3 @0.5; MES, fraction of animals ([3]; 100 mg/kg @ 4.0 hr): hr, 1/3 @

Reference: patent publication US12486218B2, “Compounds advantageous in the treatment of central nervous system diseases and disorders” (AurimMed Pharma, Inc., priority 2008, dated 2025)
